Patent US12411143B2, “CD146 and uses thereof as a biomarker and as a therapeutic target in the diagnosis and treatment of fibrosis” (ASSISTANCE PUBLIQUE HÔPITAUX DE MARSEILLE, priority 2018, dated 2025)

Experiments:
[1] = test system: ECFC; assay: Soluble CD146 secretion in ECFC (ELISA); format: cell-based, human
Experimental: A: Secretion of soluble CD146 (CD146s) was determined in ECFC in response to 24 h of treatment with 20 ng/ml TNF, 20 ng/ml VEGF, 5 ng/ml TGFb, 50 ng/ml netrin, 50 ng/ml Wnt5a and 50 ng/ml Wnt3a.
B: The effect of the pan-inhibitor GM6001 was tested on CD146s secretion in ECFC cells by ELISA. Experiments were performed in control conditions and after treatment with 20 ng/ml TNF for 24 h. […] A dose-dependence of GM6001 effect was performed between 1 and 50 μM. Results are the mean values+/−SEM of 5 experiments.
C: The effect of furin convertase inhibitor (IF) was tested at 50 μMon CD146s secretion in control condition and after treatment with TNF 20 ng/ml for 24 h. Results are the mean values+/−SEM of 3 experiments.
D: Effect of TIMP-1, -2 and -3 (1 μg/ml) was tested on CD146s secretion in control condition and after treatment with 20 ng/ml TNF. Results are the mean values+/−SEM of 3 experiments. *: P<0.05, **: P<0.01, ***: P<0.001, experimental vs Control
A: ECFC were transfected with siRNA targeting the short (shCD146) or the long (IgCD146) isoforms of CD146 and with a control siRNA (C). Soluble CD146 (sCD146) secretion was determined. Results are the mean values+/−SEM of 4 different experiments.
B: ECFC were transfected with siRNA targeting MT1-MMP, MMP2, ADAM10 or Tace and with a control siRNA (C). Soluble CD146 (sCD146) secretion was determined. In one condition, cells were treated with GM6001 10 μM. Results are the mean values+/−SEM of 5 different experiments.
A: ECFC were transfected with siRNA targeting the short (shCD146) or the long (IgCD146) isoforms of CD146 and with a control siRNA (C) and soluble CD146 (sCD146) secretion was determined in basal condition and in cells treated for 24 h with TNF 20 ng/ml. Results are the mean values +/−SEM of 5 different experiments.
B: ECFC treated for 24 h with 20 ng/ml TNF were transfected with siRNA targeting Tace, ADAM10, MT1-MMP and with a control siRNA (C) and soluble CD146 (sCD146) secretion was determined. Results are the mean values +/−SEM of 3 different experiments.
Endothelial Colony Forming Cells (ECFC) were cultured in endothelial EGM-2 MV medium as previously described (Delorme B et al., 2005).
SiRNA designed to silence the different isoforms of sCD146 were generated. A control siRNA was also used in each experiment. siRNAs were introduced in endothelial cells using the Silence magmagnetofection kit as described by the manufacturer (OZ Biosciences).
Shed sCD146 was assayed using the commercial ELISA assay (CY-QUANT sCD146, Biocytex, Marseille). Plates were coated with specific mouse monoclonal anti-human CD146 F(ab′)2 fragments. 10 μL of sera was added to each well and incubated for 30 minutes at room temperature. After incubation, the plates were washed five times, followed by incubation with a specific HRP-coupled monoclonal antibody (7A4-HRP, 1 mg/ml, Biocytex, Marseille, France) at a 1:1 000 dilution in a specific diluent for 30 minutes at room temperature and then washed five times. 200 μL of tetramethylbenzidine (TMB) substrate was incubated for approximately 20 minutes at room temperature. The colorimetric reaction was then stopped by the addition of 100 μL of an acid solution. The intensity of the signal was directly related to the concentration of sCD146 initially contained in the sample. For detecting the two spliced isoforms of sCD146 (I5-13-sCD146 and I10-sCD146), the same immunoassay was used (Biocytex). The protocol was modified only for the second antibody (detection antibody) that was replaced by the anti-I5-13-sCD146 or anti-I10-sCD146 antibodies coupled to HRP.

[2] = test system: ECFC; assay: Permeability of ECFC monolayer to dextran-FITC; format: cell-based, human; details: siRNA or plasmid transfection
Experimental: D: ECFC were transfected with siRNA targeting ADAM10 or Tace and with a control siRNA (C). The permeability of the ECFC monolayer grown on semi-permeable filters was determined using dextran-FITC. Results are the mean values+/−SEM of 3 experiments.
E: ECFC were transfected with plasmid vectors encoding ADAM10 (p-ADAM10) or Tace (p-Tace) and with a control plasmid vector (C). The permeability of the ECFC monolayer grown on semi-permeable filters was determined using dextran-FITC. Results are the mean values+/−SEM of 3 experiments. *: P<0.05, **: P<0.01, ***: P<0.001, experimental vs Control.
ECFC were seeded at 60,000 cells per well on membrane inserts (porosity 1 μm) of a 24-multiwell double chamber system (Multiwell Insert System, BD Biosciences, Le Pont de Claix, France) after siRNA transfection or not. Confluent endothelial monolayers were then incubated for 24 h in EGM-2 medium in the presence or absence of the different forms of sCD146. The FITC-dextran (sigma) was added at the apical surface of the cells and was allowed to migrate for 1.5 h at 37° C. Basolateral FITC-dextran was then measured using a Cytofluor Series 4000 Fluorescence (PerSeptiveBiosystems, Framingham, MA).

[3] = test system: mouse ischemic hind limb model; assay: Mouse hind limb ischemia model; format: in vivo
Experimental: A: Ischemic mice were treated with PBS or 2 μg of rh-sCD146/rh-I10-sCD146/rh-I5-13-sCD146 or VEGF. Blood perfusion rate was monitored by laser-Doppler. Results are mean values of 6 different animals in each group and expressed as % of the control leg. *, **, ***: P<0.05, P<0.01, P<0.001, I10-sCD146 vs. PBS; $$, $$$: P<0.01, P<0.001, I5-13-sCD146 vs. PBS; ##, ###: P<0.01, P<0.001, shed sCD146 vs. PBS; £: P<0.05, VEGF vs. PBS.
B: Blood vessels examination in hind limb muscle sections from control (PBS) and shed rh-sCD146/rh-I10-sCD146/rh-I5-13-sCD146 treated animals 28 days after surgery. Vessels are labelled with isolectin B4.**, ***: P<0.01, P<0.001, experimental vs control. $: P<0.05, I10-sCD146 vs I5-13-sCD146.
C: Angiographic pictures of control (PBS) and shed sCD146/I10-sCD146/I5-13-sCD146 treated animals at D28. Pictures are representative of the 6 animals in each group. Average of the density of the vessels was expressed as right versus left leg in the different parts of the legs (calf, thigh) and in the whole leg. *, **: P<0.01, P<0.001 experimental vs PBS in calf; $: P<0.05, experimental vs PBS in thigh; #, ##: P<0.05, P<0.01, experimental vs PBS in whole leg.
In sections of muscles from ischemic mice, vascularisation was visualized with isolectin B4 (Lifetechnologies) ( 1/100). Tissue sections were examined by fluorescence microscopy (Leica sp5, Leica, Nanterre, France).
Female mice were subjected to unilateral hind limb ischemia by complete resection of the entire left femoral artery. After surgery, animals were split in four treatment groups: one control group injected in ischemic adductor muscles twice a week with PBS for 28 days; three experimental groups treated as the control groups with the three different recombinant human soluble CD146 (rh-sCD146, rh-I5-13-sCD146, rh-I10-sCD146) 2 μg.
The ratio of the ischemic versus normal hind limb blood flow was measured using a laser doppler blood flow analyzer. At different time points post-surgery (days 1, 3, 7, 14, 21 and 28), animals were subjected to 3 consecutive laser scannings over the regions of interest (leg and feet). Blood flow was expressed as the ischemic versus normal hind limb ratio.
The animals were deeply anesthetised with mix of Ketamine Xylasine (100 mg/kg and 10 mg/kg respectively) and perfused intracardially with 2 ml of lipiodole. CT 3D images were obtained with a microPET/microCT rodent model scanner (nanoPET/CTO, Mediso) with features below: 70 kVp energy, exposure time of 300 ms and 720 projections and were quantified.

[4] = test system: ECFC; assay: mRNA expression of sCD146 isoforms in ECFC (qPCR); format: cell-based, human; details: ECFC; 24 h treatment (WNT5a 15 min, WNT3a 1 h)
Experimental: C: The mRNA expression of I10-sCD146 and I5-13-sCD146 isoforms was analyzed by qPCR in ECFC after treatment of the cells for 24 h with the recombinant shed soluble CD146 50 ng/ml, VEGF 20 ng/ml, TNF 20 ng/ml, TGF beta 5 ng/ml, and netrin 50 ng/ml. Cells were also treated for 15 min with WNT5a 200 ng/ml and 1 h with WNT3a 50 ng/ml. Results are the mean values +/−SEM of 3 experiments. *: P<0.05, experimental vs Control.
Total cellular RNA was isolated from cells, reverse transcribed into cDNA and the resulting cDNA was subjected to qPCR.

[5] = test system: ECFC; assay: ECFC proliferation assay; format: cell-based, human; details: siRNA or plasmid transfection, in the presence of GM6001 10 μM
Experimental: A: Effect of siRNA targeting I10-sCD146 and I5-13-sCD146 on proliferation of ECFC. Experiments were performed in the presence of GM6001 10 μM. Results are mean values of 4 different experiments and representative pictures of the cells in one experiment are given.
B: Effect of over-expression of I10-sCD146 (p-I10-sCD146), I5-13-sCD146 (p-I5-13-sCD146) and shed sCD146 (p-shed sCD146) realized by plasmid transfection on proliferation of ECFC. Experiments were performed in the presence of GM6001 10 μM.
C: Effect of recombinant proteins I10-sCD146, I5-13-sCD146 and shed sCD146 50 ng/ml on the proliferation of ECFC. Experiments were performed in the presence of GM6001 10 μM. Results are mean values of 4 different experiments.
Experiments were performed as previously described (Stalin et al., 2013).

Row | Substance | reduction of sCD146 secretion by siRNA ([1]; 24 h TNF 20 ng/ml) | effect of siRNA on sCD146 secretion ([1]; control condition) | permeability of ECFC monolayer to dextran [2] | proliferation of ECFC [5] | also measured
1 | ADAM10 siRNA: siRNA targeting ADAM10; sens 5′GAAUGGUAGAACAAGGUGAtt (sense GAAUGGUAGAACAAGGUGATT; antisense UCACCUUGUUCUACCAUUCCA; chemistry not given here) | 60% | able to inhibit sCD146 secretion | decreased | – | –
2 | IgCD146 siRNA: siRNA targeting the long isoform of CD146; sens 5′CCCGUCUCGUAAGACCGAACUUGUA (antisense UACAAGUUCGGUCUUACGAGACGGG; chemistry not given here) | about 60% | reduced sCD146 secretion | significantly increased endothelial permeability | – | reduction of sCD146 secretion by siRNA ([1]; control condition): around 75%
3 | Tace siRNA: siRNA targeting Tace; sens 5′CAGGAUUUAAAGGUUAUGGAA (antisense UUCCAUAAACCUUUAAAUCCUG; listed as RNA, chemistry not given here) | 25% | – | did not modify it | – | –
4 | VEGF [reference compound] | – | – | – | – | vascularisation of muscle (isolectin B4 labelling) ([3]; 28 days after surgery, compared to PBS): vascularisation was increased; vessel density in calf, thigh and whole leg (angiography quantification) ([3]; D28, compared to PBS): significantly increased; I5-13-sCD146 mRNA level [4]: not modified; I10-sCD146 mRNA level [4]: down-regulated; secretion of soluble CD146 in response to stimuli ([1]; 24 h, 20 ng/ml TNF, 20 ng/ml VEGF, 5 ng/ml TGFb, 50 ng/ml netrin, 50 ng/ml Wnt5a): increased
5 | siRNA targeting I5-13-sCD146: siRNA targeting I5-13-sCD146; sens UGGACAUCUAGACGGCUGCUCGUUU (antisense AAACGAGCAGCCGUCUAGAUGUCCA; chemistry not given here) | – | – | – | inhibited the proliferation of ECFC | –
6 | siRNA targeting I10-sCD146: siRNA targeting I10-sCD146; sens CCCUCCCUCUGGGUAGAGACCAGGU (antisense ACCUGGUCUCUACCCAGAGGGAGGG; chemistry not given here) | – | – | – | inhibited the proliferation of ECFC | –
